Results taken from patent publication US9920063B2, “Melampomagnolide B derivatives” (Board of Trustees of the University of Arkansas, priority 2013, dated 2018).
Entries after “also recorded” stand apart in the source; their conditions may differ.

Tested on: panel of 60 human cancer cell lines
Assay: Screen against a panel of 60 human tumor cell lines (single dose and five dose), panel and sub-panel statements
Assay type: cell-based
Settings: all human tumor cell lines, with the exception of the leukemia cell line subpanel

Row | SMILES | Growth inhibition compared to PTL (1) and DMAPT (2)
1 | C=C1C(=O)O[C@H]2[C@H]1CC/C(COC(=O)N1CCC(F)(F)CC1)=C\CC[C@@]1(C)O[C@@H]21 [Compound 6a, ((1aR,7aS,10aS,10bS,E)-1a-methyl-8-methylene-9-oxo-1a,2,3,6,7,7a,8,9,10a,10b-decahydrooxireno[2′,3′:9,10]cyclodeca[1,2-b]furan-5-yl)methyl-4,4-difluoropiperidine-1-carboxylate] | generally exhibited improved growth inhibition against all human tumor cell lines when compared to PTL (1) and DMAPT (2)
2 | C=C1C(=O)O[C@H]2[C@H]1CC/C(COC(=O)Nc1n[nH]c(SC)n1)=C\CC[C@@]1(C)O[C@@H]21 [Compound 6e, ((1aR,7aS,10aS,10bS,E)-1a-methyl-8-methylene-9-oxo-1a,2,3,6,7,7a,8,9,10a,10b-decahydrooxireno[2′,3′:9,10]cyclodeca[1,2-b]furan-5-yl)methyl-(5-(methylthio)-1H-1,2,4-triazol-3-yl)carbamate] | generally exhibited improved growth inhibition against all human tumor cell lines when compared to PTL (1) and DMAPT (2)

Same assay, conditions: single concentration 10^−5 M; more than 60% growth inhibition in at least eight cell lines of the panel

Row | SMILES | Outcome of initial single dose screening
3 | C=C1C(=O)OC2C1CCC(COC(=O)c1cc3cc(F)ccc3[nH]1)=CCCC1(C)OC21 (stereo not drawn) [BS-2-68] | selected for five dose screening
4 | C=C1C(=O)O[C@H]2[C@H]1CC/C(COC(=O)NCCO)=C\CC[C@@]1(C)O[C@@H]21 [JVM 2-50] | selected for a five-dose screening
5 | C=C1C(=O)O[C@H]2[C@H]1CC/C(COC(=O)CCC(=O)N1CCC(C)CC1)=C\CC[C@@]1(C)O[C@@H]21 [JVM 2-70] | selected for a five-dose screening
6 | C=C1C(=O)O[C@H]2[C@H]1CC/C(COC(=S)n1ccnc1)=C\CC[C@@]1(C)O[C@@H]21 [JVM 66] | selected for a five-dose screening
7 | C=C1C(=O)OC2C1CCC(COC(=O)c1cc3cc(Cl)ccc3[nH]1)=CCCC1(C)OC21 (stereo not drawn) [BS-2-30] | selected for five dose screening
8 | C=C1C(=O)OC2C1CCC(COC(=O)c1cc3ccccc3s1)=CCCC1(C)OC21 (stereo not drawn) [BS-2-65] | selected for five dose screening
9 | C=C1C(=O)O[C@H]2[C@H]1CC/C(COC(=O)OC)=C\CC[C@@]1(C)O[C@@H]21 [JVM 2-40] | selected for a five-dose screening
10 | C=C1C(=O)O[C@H]2[C@H]1CC/C(COC(=O)NCCN1CCCCC1)=C\CC[C@@]1(C)O[C@@H]21 [JVM 2-13] | selected for a five-dose screening
11 | C=C1C(=O)O[C@H]2[C@H]1CC/C(COC(=O)N1CCN(C)CC1)=C\CC[C@@]1(C)O[C@@H]21 [JVM 2-44] | selected for a five-dose screening
12 | C=C1C(=O)O[C@H]2[C@H]1CC/C(COC(=O)OCCCN1CCCCC1)=C\CC[C@@]1(C)O[C@@H]21 [JVM 2-26] | selected for a five-dose screening
13 | C=C1C(=O)O[C@H]2[C@H]1CC/C(COC(=O)NC)=C\CC[C@@]1(C)O[C@@H]21 [JVM 2-57] | selected for a five-dose screening
14 | C=C1C(=O)O[C@H]2[C@H]1CC/C(COC(=O)NCCc1ccccn1)=C\CC[C@@]1(C)O[C@@H]21 [Compound 6c, ((1aR,7aS,10aS,10bS,E)-1a-methyl-8-methylene-9-oxo-1a,2,3,6,7,7a,8,9,10a,10b-decahydrooxireno[2′,3′:9,10]cyclodeca[1,2-b]furan-5-yl)methyl-(2-(pyridin-2-yl)ethyl)carbamate] | selected for a five-dose screening
15 | C=C1C(=O)O[C@H]2[C@H]1CC/C(COC(=O)N1CCC(F)(F)CC1)=C\CC[C@@]1(C)O[C@@H]21 [JVM 2-66] | selected for a five-dose screening
16 | C=C1C(=O)O[C@H]2[C@H]1CC/C(COC(=O)NCCN1CCOCC1)=C\CC[C@@]1(C)O[C@@H]21 [Compound 6d, ((1aR,7aS,10aS,10bS,E)-1a-methyl-8-methylene-9-oxo-1a,2,3,6,7,7a,8,9,10a,10b-decahydrooxireno[2′,3′:9,10]cyclodeca[1,2-b]furan-5-yl)-methyl(2-morpholinoethyl) carbamate] | selected for a five-dose screening
17 | C=C1C(=O)O[C@H]2[C@H]1CC/C(COC(=O)CCC(=O)NCc1ccc(Cl)nc1)=C\CC[C@@]1(C)O[C@@H]21 [JVM 96] | selected for a five-dose screening
18 | C=C1C(=O)O[C@H]2[C@H]1CC/C(COC(=O)NCCCCCCO)=C\CC[C@@]1(C)O[C@@H]21 [JVM 2-31] | selected for a five-dose screening
19 | C=C1C(=O)O[C@H]2[C@H]1CC/C(COC(=O)OCCN(C)C)=C\CC[C@@]1(C)O[C@@H]21 [JVM 2-35] | selected for a five-dose screening
20 | C=C1C(=O)O[C@H]2[C@H]1CC/C(COC(=O)c1cc3cc(OC)ccc3[nH]1)=C\CC[C@@]1(C)O[C@@H]21 [BS-2-01] | selected for five dose screening
21 | C=C1C(=O)O[C@H]2[C@H]1CC/C(COC(=O)NCCN1CCCC1)=C\CC[C@@]1(C)O[C@@H]21 [Compound 6b, ((1aR,7aS,10aS,10bS,E)-1a-methyl-8-methylene-9-oxo-1a,2,3,6,7,7a,8,9,10a,10b-decahydrooxireno[2′,3′:9,10]cyclodeca[1,2-b]furan-5-yl)methyl-(2-(pyrrolidin-1-yl)ethyl)carbamate] | selected for a five-dose screening
22 | C=C1C(=O)O[C@H]2[C@H]1CC/C(COC(=O)Nc1n[nH]c(SC)n1)=C\CC[C@@]1(C)O[C@@H]21 [Compound 6e, ((1aR,7aS,10aS,10bS,E)-1a-methyl-8-methylene-9-oxo-1a,2,3,6,7,7a,8,9,10a,10b-decahydrooxireno[2′,3′:9,10]cyclodeca[1,2-b]furan-5-yl)methyl-(5-(methylthio)-1H-1,2,4-triazol-3-yl)carbamate] | selected for a five-dose screening

Same assay, conditions: single concentration of 10^−5 M

Row | SMILES | Activity in NCI single dose screen
23 | C=C1C(=O)O[C@H]2[C@H]1CC/C(CNC(=O)Cc1c[nH]c3ccccc13)=C\CC[C@@]1(C)O[C@@H]21 [JVM 4-14] | potent activity against all leukemia lines tested as well as some NSCLC, colon cancer, melanoma, renal cancer and breast cancer cell lines; also recorded: moderate activity against CNS cancer and ovarian cancer
24 | C=C1C(=O)O[C@H]2[C@H]1CC/C(CNC(=O)c1cc3ccccc3[nH]1)=C\CC[C@@]1(C)O[C@@H]21 [JVM 4-19] | did not show potent activity against leukemia cell lines; also recorded: potent activity against the majority of colon cancer, melanoma, renal cancer, prostate cancer and breast cancer cell lines tested; also recorded: moderate activity against NSCLC, CNS cancer and ovarian cancer cell lines

Same assay, conditions: sub-panel of human leukemia cells

Row | SMILES | Antileukemic activity compared to parent compound MMB
25 | C=C1C(=O)O[C@H]2[C@H]1CC/C(COC(=O)N1CCC(F)(F)CC1)=C\CC[C@@]1(C)O[C@@H]21 [Compound 6a, ((1aR,7aS,10aS,10bS,E)-1a-methyl-8-methylene-9-oxo-1a,2,3,6,7,7a,8,9,10a,10b-decahydrooxireno[2′,3′:9,10]cyclodeca[1,2-b]furan-5-yl)methyl-4,4-difluoropiperidine-1-carboxylate] | more potent than the parent compound
26 | C=C1C(=O)O[C@H]2[C@H]1CC/C(COC(=O)Nc1n[nH]c(SC)n1)=C\CC[C@@]1(C)O[C@@H]21 [Compound 6e, ((1aR,7aS,10aS,10bS,E)-1a-methyl-8-methylene-9-oxo-1a,2,3,6,7,7a,8,9,10a,10b-decahydrooxireno[2′,3′:9,10]cyclodeca[1,2-b]furan-5-yl)methyl-(5-(methylthio)-1H-1,2,4-triazol-3-yl)carbamate] | more potent than the parent compound

Tested on: M9 ENL cells
Assay: not given
Settings: M9ENL AML cell lines; 24 hours of drug exposure

Row | SMILES | EC50
27 | C=C1C(=O)O[C@H]2[C@H]1CC/C(COC(=O)c1ccc(Cl)nc1)=C\CC[C@@]1(C)O[C@@H]21 [JVM 340] | 11 µM
28 | C=C1C(=O)O[C@H]2[C@H]1CC/C(COC(=O)c1cc3cc(OC)ccc3[nH]1)=C\CC[C@@]1(C)O[C@@H]21 [BS-2-01] | 2.2 µM

Same assay, conditions: M9 ENL cells; lowest concentration tested (5, 10 and 20 μM tested)

Row | SMILES | Reduction of cell viability
29 | C=C1C(=O)O[C@H]2[C@H]1CC/C(COC(=O)OCCN1CCOCC1)=C\CC[C@@]1(C)O[C@@H]21 [JVM 2-60] | greater than 50%
30 | C=C1C(=O)O[C@H]2[C@H]1CC/C(COC(=O)CCC(=O)N1CCC(C)CC1)=C\CC[C@@]1(C)O[C@@H]21 [JVM 2-70] | greater than 50%
31 | C=C1C(=O)O[C@H]2[C@H]1CC/C(COC(=O)OCCN1CCCC1)=C\CC[C@@]1(C)O[C@@H]21 [JVM 2-59] | greater than 50%
32 | C=C1C(=O)O[C@H]2[C@H]1CC/C(COC(=O)N1CCC(F)(F)CC1)=C\CC[C@@]1(C)O[C@@H]21 [JVM 2-66] | greater than 50%

Same assay, conditions: M9 cell lines

Row | SMILES | Fold greater cytotoxicity than PTL
33 | C=C1C(=O)O[C@H]2[C@H]1CC/C(COC(=O)c1ccc3ccccc3c1)=C\CC[C@@]1(C)O[C@@H]21 [JVM 3-36, ((1aR,7aS,10aS,10bS,E)-1a-methyl-8-methylene-9-oxo-1a,2,3,6,7,7a,8,9,10a,10b-decahydrooxireno[2′,3′:9,10]cycodeca[1,2-b]furan-5-yl)methyl 2-naphthoate] | 3 fold
34 | C=C1C(=O)O[C@H]2[C@H]1CC/C(C(=O)Nc1n[nH]c(SC)n1)=C\CC[C@@]1(C)O[C@@H]21 [JVM 3-53, (1aR,7aS,10aS,10bS,E)-1a-methyl-8-methylene-N-(5-(methylthio)-1H-1,2,4-triazol-3-yl)-9-oxo-1a,2,3,6,7,7a,8,9,10a,10b-decahydrooxireno[2′,3′:9,10]cyclodeca[1,2-b]furan-5-carboxamide] | ~30 fold

Tested on: M9 ENL cells
Assay: cells
Settings: 24 h
Method: Carbamate and carbonate derivatives of MMB were also screened for activity against M9 ENL cells at concentrations of 5, 10 and 20 μM (FIG. 10). […] Additionally, succinic amide derivatives of MMB were screened for activity against M9 ENL cells at concentrations of 5, 10 and 20 μM (FIG. 11).
Ester and amide derivatives of melampomagnolide B were screened for anti-leukemic activity against M9ENL AML cell lines (FIG. 12; FIG. 14; FIG. 15; FIG. 16). For each compound, in vitro cell culture studies were performed in which a range of concentrations (0.25-20 μM) was tested for cytotoxicity against leukemia cell lines, primary leukemia specimens and normal bone marrow controls.

Row | SMILES | EC50
35 | C=C1C(=O)O[C@H]2[C@H]1CC/C(COC(=O)c1ccc(C#N)cc1)=C\CC[C@@]1(C)O[C@@H]21 [JVM 3-39] | 11 µM
36 | C=C1C(=O)O[C@H]2[C@H]1CC/C(COC(=O)c1ccc3ccccc3c1)=C\CC[C@@]1(C)O[C@@H]21 [JVM 3-36, ((1aR,7aS,10aS,10bS,E)-1a-methyl-8-methylene-9-oxo-1a,2,3,6,7,7a,8,9,10a,10b-decahydrooxireno[2′,3′:9,10]cycodeca[1,2-b]furan-5-yl)methyl 2-naphthoate] | 1.7 µM
37 | C=C1C(=O)O[C@H]2[C@H]1CC/C(COC(=O)c1ccc(Cl)cc1)=C\CC[C@@]1(C)O[C@@H]21 [JVM 3-41] | 13 µM
38 | C=C1C(=O)O[C@H]2[C@H]1CC/C(C(=O)N1CCC(C)CC1)=C\CC[C@@]1(C)O[C@@H]21 [JVM 3-51] | 12 µM
39 | C=C1C(=O)O[C@H]2[C@H]1CC/C(COC(=O)c1ccc(Br)cc1)=C\CC[C@@]1(C)O[C@@H]21 [JVM 3-30] | 3.3 µM
40 | C=C1C(=O)O[C@H]2[C@H]1CC/C(C(=O)n1ccnc1C)=C\CC[C@@]1(C)O[C@@H]21 [JVM 3-57] | 5.9 µM
41 | C=C1C(=O)O[C@H]2[C@H]1CC/C(C(=O)N1CCCCC1)=C\CC[C@@]1(C)O[C@@H]21 [JVM 3-52] | 8.3 µM
42 | C=C1C(=O)O[C@H]2[C@H]1CC/C(COC(=O)c1ccc(OC)cc1OC)=C\CC[C@@]1(C)O[C@@H]21 [JVM 3-44] | 3.5 µM
43 | C=C1C(=O)O[C@H]2[C@H]1CC/C(C(=O)N1CCN(C)CC1)=C\CC[C@@]1(C)O[C@@H]21 [JVM 3-46] | 28 µM
44 | C=C1C(=O)O[C@H]2[C@H]1CC/C(COC(=O)c1cc(OC)c(OC)c(OC)c1)=C\CC[C@@]1(C)O[C@@H]21 [JVM 3-22] | 4.7 µM
45 | C=C1C(=O)O[C@H]2[C@H]1CC/C(COC(=O)c1cccc3ccccc13)=C\CC[C@@]1(C)O[C@@H]21 [JVM 3-38] | 2.9 µM
46 | C=C1C(=O)O[C@H]2[C@H]1CC/C(C(=O)N1CCC(F)(F)CC1)=C\CC[C@@]1(C)O[C@@H]21 [JVM 3-50] | 3.5 µM
47 | C=C1C(=O)O[C@H]2[C@H]1CC/C(C(=O)Nc1n[nH]c(SC)n1)=C\CC[C@@]1(C)O[C@@H]21 [JVM 3-53, (1aR,7aS,10aS,10bS,E)-1a-methyl-8-methylene-N-(5-(methylthio)-1H-1,2,4-triazol-3-yl)-9-oxo-1a,2,3,6,7,7a,8,9,10a,10b-decahydrooxireno[2′,3′:9,10]cyclodeca[1,2-b]furan-5-carboxamide] | 0.016 µM

Tested on: AML 052308 cells
Assay: Antileukemic activity against AML 052308 cells in culture
Settings: not given

Row | SMILES | EC50
48 | C=C1C(=O)OC2C1CC/C(CO)=C\CCC1(C)OC21 (stereo not drawn) [MMB, Melampomagnolide B] | 16 µM
